Measured values published in US6414157B1, “3-Substituted tetrahydropyridopyrimidinone derivatives, method for producing the same, and their use” (Abbott Laboratories, priority 1997, dated 2002).
Counter-ions that a name gives are not always drawn.

Tests used:
[1] = test system: serotonin release in the cortex; settings: after systemic administration; cited from earlier work
[2] = test system: serotonin release in the dorsal raphe nucleus; settings: dorsal raphe nucleus of the rat; together with paroxetine; cited from earlier work

## COc1ccccc1N1CCN(CCn2cnc3c(c2=O)CCN(Cc2ccccc2)C3)CC1 (as salt: hydrochloride)
other
  melting point: 181 °C

## COc1ccccc1N1CCN(CCCn2cnc3c(c2=O)CN(Cc2ccccc2)CC3)CC1 (as salt: hydrochloride)
other
  melting point: 198 °C

## COc1ccc(NC(=O)c2ccc(-c3ccc(-c4noc(C)n4)cc3C)cc2)cc1N1CCN(C)CC1 [GR 127 935]
[1]
  serotonin release in the cortex: reduces serotonin release in the cortex
[2]
  effect of paroxetine on serotonin release: potentiated
